Source: US12070457B2, “Substituted pyridines, pyridazines, pyrimidines, and 1,2,3-triazines as bruton's tyrosine kinase inhibitors” (HUTCHISON MEDIPHARMA LIMITED, priority 2020, dated 2024)

Legend:
[1] = Study on in vivo pharmacokinetics in mice; parameters: species or system mouse; conditions: mice, intragastric, 10 mg/kg
Text: Example 6 Study on In Vivo Pharmacokinetics in Mice
Solutol HS15 was purchased from BASF, Germany, ethanol (anhydrous) was purchased from Nanjing Chemical Reagent Co., Ltd., physiological saline was purchased from Huayu (Wuxi) Pharmaceutical Co., Ltd., dimethyl sulfoxide (DMSO) and sodium carboxymethyl cellulose 800-1200 (CMC-Na) were purchased from Sinopharm Chemical Reagent Co., Ltd.
Preparation of ethanol/Solutol mixed solution (1:1, v/v): taking an appropriate amount of Solutol HS15 in a centrifuge tube and placing in a 37° C. water bath until dissolved, placing on the bench top to room temperature, taking 1 mL of Solutol in a centrifuge tube containing 1 mL of ethanol and mixing well to obtain the mixed solution.
Taking an appropriate amount of stock solution and placing in a blank centrifuge tube, adding an appropriate amount of ethanol/Solutol mixed solution prepared in advance, vortexing, then adding an appropriate amount of physiological saline, and mixing well until a transparent liquid.
3. Administration to Animals and Sample Collection:
Male ICR mice were purchased from Shanghai Lingchang Biotechnology Co., Ltd. 18 mice were randomly divided into intravenous administration group and intragastric administration group. The mice were fasted overnight before administration. The mice were withheld food but allowed to access water freely within 4 hours after administration, and allowed to freely access food and water after 4 hours. After anesthesia with isoflurane, blood was collected from the retroorbital venous plexus and placing in an centrifuge tube containing anticoagulant, and the centrifuge tube was stored in an box containing wet ice until the plasma was centrifuged.
The plasma samples were pre-treated and then analyzed by liquid chromatography-tandem mass spectrometry (LC-MS/MS), the instrument model was API5500. The analytical chromatographic column was Waters XSELECT HSS T3 C18 column (50×2.1 mm, 2.5 μm). In the mobile phases, deionized water containing 0.1% formic acid and 0.1% acetonitrile was used as the aqueous phase and acetonitrile containing 0.1% formic acid was used as the organic phase. The concentrations of the compound in the samples were determined as follows. Firstly, a standard curve was established, and the peak area ratios of the compound 19 to the internal standard in the standard curve were used as indexes. The theoretical concentrations of compound 19 and the peak area ratios of compound 19 to the internal standard were fitted with a quadratic regression equation to obtain the regression equation. The sample concentrations were calculated by measuring the peak area ratio of the compound of the test sample to the internal standard according to the standard curve.

[2] = Rat arthritis model induced by type II collagen (CIA); assay type: in vivo; conditions: 4 mg/kg oral once a day, CIA rats
Experimental: Example 9 Therapeutic Effect of the Compound of the Present Invention on a Rat Arthritis Model Induced by Type II Collagen
An appropriate amount of bovine type II collagen (CII, Chondrex (Redmond, WA, USA), Cat #20021) was weighed and dissolved in 0.1 mole of acetic acid (SPGC Sinopharm Chemical Reagent Co., Ltd (Shanghai, P.R.China), Cat #: 10000218.), which was formulated into a solution with a concentration of 6 mg/mL, stirred at 4° C. overnight, and added with an equal volume of Freund's incomplete adjuvant (Sigma-Aldrich. (St. Louis, MO, USA), Cat #: SLBW0366.), fully emulsified to prepare an emulsion with a CII concentration of 3 mg/mL. […]
The paw volume was measured on day 8 after immunization, and the left and right hind paw volumes (V) were measured every day after the paw volume increase was detected. […]
The area under the curve (AUC) of the average paw volume change is the area under the curve of the arthrosis score change calculated by the trapezoid method, and the calculation formula is: AUCpaw volume=½×(APSd1+APSd2)λ(d2−d1)+½×(APSd2+APSd3)×(d3-d2)+. . . +½×(APSdn+APSd(n-1))×(dn−dn-1)
ED50 is calculated by XLfit software according to the AUC inhibition ratio of the area under the curve of the average paw volume change. […]

[3] = Stability test in liver microsomes (rat); assay type: in vitro ADME; conditions: rat liver microsomes, 1 μM compound, 30 min
Text: (§1) Example 5 Stability Test in Liver Microsomes
(§2) Both male CD-1 mouse pooled liver microsomes and male SD rat pooled liver microsomes were purchased from BioreclamationIVT Corporation, USA.
(§3) Phenacetin, glucose-6-phosphate dehydrogenase (G-6-PDH) and nicotinamide adenine dinucleotide phosphate (NADP) were all purchased from Sigma-Aldrich Corporation, USA. Glucose-6-phosphate (G-6-P) was purchased from Shanghai Eybridge Chemical Technology Co., Ltd.
(§4) Ten mM test compound stock solution: a certain amount of test compound was weighed, and dissolved with an appropriate volume of DMSO to prepare a stock solution with a concentration of 10 mM for use.
(§5) Reaction stopping solution: an appropriate amount of internal standard compound phenacetin was dissolved in acetonitrile to prepare a reaction stopping solution with a concentration of 1000 ng/mL for use at room temperature.
(§6) The test compound stock solution was diluted with an organic solvent (usually a mixture of acetonitrile, methanol and water with various ratios, depending on the solubility of the compound, if necessary, 1 N hydrochloric acid or 1 N sodium hydroxide would be added to facilitate solubilization) to the 0.1 mM (the final concentration of the compound in the reaction system was 1 μM) and the concentration percentage of the organic solvents in the incubation system no more than 1% (wherein the percentage of DMSO was required to be no more than 0.1%). An appropriate amount of 100 mM NADP, 500 mM G-6-P and 100 Unit/mL G-6-PDH were mixed and diluted with ultrapure water (the final system contains 1 mM NADP, 5 mM G-6-P and 1 Unit/mL G-6-PDH), pre-incubated in a 37° C. water bath for 10 minutes and then placed on ice for use as a NADPH regeneration solution. 20 mg/mL liver microsomes solution and 200 mM phosphate buffer was mixed, and diluted with ultrapure water to give a liver microsomes solution containing 2.5 mg/mL liver microsomes (the final concentration of the reaction system is 0.5 mg/mL) and 50 mM phosphate buffer. The diluted liver microsomes solution was mixed with 0.1 mM compound solution, a mixture of 100 mM EDTA, 300 mM MgCl2 solution, 200 mM phosphate buffer (the final system was 3 mM MgCl2, 1 mM EDTA and 50 mM phosphate buffer) and water in an appropriate volume was added. Finally, the NADPH regeneration solution was added, then the reaction solution was placed in a 37° C. water bath to start the reaction (the reaction time was 30 minutes), and the reaction was stopped by adding the ice-cold acetonitrile reaction stopping solution containing the internal standard. The 0-minute sample was not incubated in a 37° C. water bath, and its difference from the 30-minute sample further lies in that the ice-cold acetonitrile reaction stopping solution containing the internal standard was added first, and then the NADPH regeneration solution was added. The sample added with the reaction stopping internal standard solution was vortexed and mixed well, and then centrifuged at 4400 rpm for 10 minutes. The supernatant was taken and diluted ten times with 50% methanol for LC-MS/MS analysis.
(§7) LC-MS/MS was used to determine the concentration of the compound in the sample. The percentage of the remaining compound after 30 minutes of incubation comparing with that in the 0-minute sample was calculated using the peak area ratio of the compound to the internal standard as an indicator, to evaluate the metabolic stability of the compound.
(§8) Instrument: API4500, API4000 or LTQ Mass Spectrometer; the liquid phase is UHPLC system (Shimadzu LC-30 AD, model Nexra X2) including liquid delivery unit, column thermostat, detector and autosampler; or Agilent 1200 Binary Pump series HPLC and CTC Autosampler.
(§9) Chromatographic column: Waters XSELECT Hss T3 C18 (2.5 μm, 2.1×50 mm) or […] (5 μm, 2.0×50 mm)
(§10) Mobile phase: • A: water with 0.1% FA (formic acid) (with or without 0.1% ACN (acetonitrile)) • B: acetonitrile with 0.1% FA (formic acid).

[4] = Stability test in liver microsomes (mouse); assay type: in vitro ADME; conditions: mouse liver microsomes, 1 μM compound, 30 min
Text: as §1, §2, §3, §4, §5, §6, §7, §8, §9, §10

T1/2 [1]: 1.5 h
C8 h ([1]; plasma at 8 h): 143 ng/mL
RLM, percentage of remaining compound after 30 minutes of incubation [3]: 81.0%
MLM, percentage of remaining compound after 30 minutes of incubation [4]: 76.3%
SMILES: C[C@H]1CN(C2COC2)CCN1c1ccc(Nc2cc(-c3ccnc(N4CCn5c(cc6c5CC(C)(C)C6)C4=O)c3CO)cn(C)c2=O)nc1 [GDC-0853, fenebrutinib, reference compound]
paw volume compared with vehicle control group [2]: significantly reduced
